Measurements taken from PubChem BioAssay (NCI).
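Grown in 96-well plates, cells were treated for 48 hours with each compound at five concentrations. Insufficient inhibition: endpoint recorded as highest concentration tested. At the GI50, growth is halved. TGI denotes the concentration required for complete inhibition of growth.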

Key:
Experiment in all cases: DTP human tumour cell line panel, 48 h
786-0 renal = tested on: 786-0 renal
A498 renal = tested on: A498 renal
A549 NSCLC = tested on: A549 NSCLC
ACHN renal = tested on: ACHN renal
BT-549 breast = tested on: BT-549 breast
CAKI-1 renal = tested on: CAKI-1 renal
CCRF-CEM leukemia = tested on: CCRF-CEM leukemia
COLO 205 colon = tested on: COLO 205 colon
DU-145 prostate = tested on: DU-145 prostate
EKVX NSCLC = tested on: EKVX NSCLC
HCC-2998 colon = tested on: HCC-2998 colon
HCT-116 colon = tested on: HCT-116 colon
HCT-15 colon = tested on: HCT-15 colon
HOP-62 NSCLC = tested on: HOP-62 NSCLC
HOP-92 NSCLC = tested on: HOP-92 NSCLC
HS 578T breast = tested on: HS 578T breast
IGROV1 ovarian = tested on: IGROV1 ovarian
KM12 colon = tested on: KM12 colon
LOX IMVI melanoma = tested on: LOX IMVI melanoma
M14 melanoma = tested on: M14 melanoma
MALME-3M melanoma = tested on: MALME-3M melanoma
MCF7 breast = tested on: MCF7 breast
MDA-MB-231 breast = tested on: MDA-MB-231 breast
MDA-MB-435 = tested on: MDA-MB-435
NCI-H226 lung = tested on: NCI-H226 lung
NCI-H460 lung = tested on: NCI-H460 lung

Structure (SMILES): CCN1CCN(S(=O)(=O)c2oc(-c3ccc(Cl)cc3)nc2C#N)CC1
- GI50 (786-0 renal): 2.78 µM
- TGI (786-0 renal): 8.19 µM
- GI50 (A498 renal): 29.4 µM
- TGI (A498 renal): 82.4 µM
- GI50 (A549 NSCLC): 17.8 µM
- TGI (A549 NSCLC): 35.1 µM
- GI50 (ACHN renal): 1.91 µM
- TGI (ACHN renal): 3.42 µM
- GI50 (BT-549 breast): 4.87 µM
- TGI (BT-549 breast): 18.5 µM
- GI50 (CAKI-1 renal): 1.38 µM
- TGI (CAKI-1 renal): 2.74 µM
- GI50 (CCRF-CEM leukemia): 1 µM
- TGI (CCRF-CEM leukemia): 8.75 µM
- GI50 (COLO 205 colon): 2.07 µM
- TGI (COLO 205 colon): 3.76 µM
- GI50 (DU-145 prostate): 7.58 µM
- TGI (DU-145 prostate): 21 µM
- GI50 (EKVX NSCLC): 16 µM
- TGI (EKVX NSCLC): 29.8 µM
- GI50 (HCC-2998 colon): 15.8 µM
- TGI (HCC-2998 colon): 31.4 µM
- GI50 (HCT-116 colon): 2.12 µM
- TGI (HCT-116 colon): 6.98 µM
- GI50 (HCT-15 colon): 1.76 µM
- TGI (HCT-15 colon): 3.92 µM
- GI50 (HOP-62 NSCLC): 17.2 µM
- TGI (HOP-62 NSCLC): 33.6 µM
- GI50 (HOP-92 NSCLC): 2.75 µM
- TGI (HOP-92 NSCLC): 10.1 µM
- GI50 (HS 578T breast): 20.9 µM
- TGI (HS 578T breast): 69.4 µM
- GI50 (IGROV1 ovarian): 15.8 µM
- TGI (IGROV1 ovarian): 37 µM
- GI50 (KM12 colon): 15.7 µM
- TGI (KM12 colon): 42.8 µM
- GI50 (LOX IMVI melanoma): 1.13 µM
- TGI (LOX IMVI melanoma): 2.54 µM
- GI50 (M14 melanoma): 3.5 µM
- TGI (M14 melanoma): 15.7 µM
- GI50 (MALME-3M melanoma): 2.07 µM
- TGI (MALME-3M melanoma): 4.12 µM
- GI50 (MCF7 breast): 2.3 µM
- TGI (MCF7 breast): 10.4 µM
- GI50 (MDA-MB-231 breast): 14.5 µM
- TGI (MDA-MB-231 breast): 29.1 µM
- GI50 (MDA-MB-435): 4.47 µM
- TGI (MDA-MB-435): 16.3 µM
- GI50 (NCI-H226 lung): 2.46 µM
- TGI (NCI-H226 lung): 7.01 µM
- GI50 (NCI-H460 lung): 15.8 µM
- TGI (NCI-H460 lung): 39.9 µM
